Read-outs that look alike come from different tables or passages of the source.
Tests used:
Type in all cases: binding
[1] = target: T1, HeLa cell extract proteins (Homo sapiens, UniProt O95433); conditions: protein AHSA1; HeLa
T1 construct: endogenous in cells; host or cells: HeLa cell extract

[2] = target: T2, HeLa cell extract proteins (Homo sapiens, UniProt P09429); conditions: HeLa; protein HMGB1 (HIGH MOBILITY GROUP PROTEIN B1.)
T2 construct: endogenous in cells; host or cells: HeLa cell extract
T2 sequence (P09429 1-215): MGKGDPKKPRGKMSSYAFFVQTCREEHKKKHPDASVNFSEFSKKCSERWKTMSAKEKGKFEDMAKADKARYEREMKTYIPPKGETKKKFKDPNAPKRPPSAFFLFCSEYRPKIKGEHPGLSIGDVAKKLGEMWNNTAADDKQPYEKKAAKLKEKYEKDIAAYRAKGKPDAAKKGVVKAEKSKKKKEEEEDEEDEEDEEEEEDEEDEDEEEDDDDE

[3] = target: T3, HeLa cell extract proteins (Homo sapiens, UniProt Q05639); conditions: protein EEF1A2; HeLa
T3 construct: endogenous in cells; host or cells: HeLa cell extract
T3 sequence (Q05639 1-463): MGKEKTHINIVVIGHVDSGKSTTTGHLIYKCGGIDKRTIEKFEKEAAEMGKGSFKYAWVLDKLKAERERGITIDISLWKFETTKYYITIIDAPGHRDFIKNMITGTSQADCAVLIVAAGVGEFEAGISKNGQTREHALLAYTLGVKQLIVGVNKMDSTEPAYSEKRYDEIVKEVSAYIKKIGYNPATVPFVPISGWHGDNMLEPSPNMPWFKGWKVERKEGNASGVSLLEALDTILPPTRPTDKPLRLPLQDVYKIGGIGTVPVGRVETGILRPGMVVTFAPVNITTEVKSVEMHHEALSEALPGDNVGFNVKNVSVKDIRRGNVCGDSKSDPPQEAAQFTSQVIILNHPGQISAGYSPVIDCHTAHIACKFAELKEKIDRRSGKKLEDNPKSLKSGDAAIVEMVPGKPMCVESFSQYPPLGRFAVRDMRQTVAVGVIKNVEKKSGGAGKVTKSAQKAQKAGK

[4] = target: T4, HeLa cell extract proteins (Homo sapiens, UniProt Q9Y5V3); conditions: captured protein MAGED1; HeLa
T4 construct: endogenous in cells; host or cells: HeLa cell extract
T4 sequence (Q9Y5V3 1-778): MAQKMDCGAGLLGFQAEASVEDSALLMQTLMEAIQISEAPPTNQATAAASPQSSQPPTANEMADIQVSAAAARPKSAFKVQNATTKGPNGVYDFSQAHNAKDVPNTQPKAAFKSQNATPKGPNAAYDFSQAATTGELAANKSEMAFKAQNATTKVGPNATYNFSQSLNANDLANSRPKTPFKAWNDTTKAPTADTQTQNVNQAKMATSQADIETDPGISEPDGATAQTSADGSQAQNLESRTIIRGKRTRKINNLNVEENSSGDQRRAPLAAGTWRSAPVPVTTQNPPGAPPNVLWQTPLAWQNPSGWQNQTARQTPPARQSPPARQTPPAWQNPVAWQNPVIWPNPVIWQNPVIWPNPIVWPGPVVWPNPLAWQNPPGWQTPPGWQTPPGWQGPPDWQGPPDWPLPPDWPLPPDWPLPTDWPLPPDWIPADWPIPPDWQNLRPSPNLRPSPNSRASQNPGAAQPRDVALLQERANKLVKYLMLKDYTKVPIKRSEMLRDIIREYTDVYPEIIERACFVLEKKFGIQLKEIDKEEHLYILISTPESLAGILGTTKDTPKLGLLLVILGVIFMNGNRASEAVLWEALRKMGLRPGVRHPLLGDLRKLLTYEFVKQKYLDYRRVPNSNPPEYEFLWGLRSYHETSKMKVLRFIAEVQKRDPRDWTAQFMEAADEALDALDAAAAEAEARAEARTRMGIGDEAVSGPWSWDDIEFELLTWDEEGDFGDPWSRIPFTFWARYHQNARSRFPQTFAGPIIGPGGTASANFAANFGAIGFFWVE

[5] = target: T5, HeLa cell extract proteins (Homo sapiens, UniProt O95817)
T5 construct: endogenous in cells; host or cells: HeLa cell extract
T5 sequence (O95817 whole entry): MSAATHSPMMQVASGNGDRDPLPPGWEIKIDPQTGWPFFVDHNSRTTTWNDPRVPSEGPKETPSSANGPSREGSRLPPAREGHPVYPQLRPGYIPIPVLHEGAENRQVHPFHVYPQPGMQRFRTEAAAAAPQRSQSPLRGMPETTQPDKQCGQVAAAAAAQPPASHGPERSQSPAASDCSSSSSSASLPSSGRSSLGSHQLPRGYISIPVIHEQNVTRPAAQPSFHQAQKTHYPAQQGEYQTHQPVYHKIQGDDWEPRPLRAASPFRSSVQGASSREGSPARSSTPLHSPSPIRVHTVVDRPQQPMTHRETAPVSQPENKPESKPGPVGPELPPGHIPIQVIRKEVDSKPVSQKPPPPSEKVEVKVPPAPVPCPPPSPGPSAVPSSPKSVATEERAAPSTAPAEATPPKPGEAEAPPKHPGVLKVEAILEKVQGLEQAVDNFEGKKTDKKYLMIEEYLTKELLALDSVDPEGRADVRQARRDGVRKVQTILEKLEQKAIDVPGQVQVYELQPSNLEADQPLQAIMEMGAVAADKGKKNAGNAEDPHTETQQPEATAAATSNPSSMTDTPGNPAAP

[6] = target: T6, HeLa cell extract proteins (Homo sapiens, UniProt P69905)
T6 construct: endogenous in cells; host or cells: HeLa cell extract
T6 sequence (P69905 whole entry): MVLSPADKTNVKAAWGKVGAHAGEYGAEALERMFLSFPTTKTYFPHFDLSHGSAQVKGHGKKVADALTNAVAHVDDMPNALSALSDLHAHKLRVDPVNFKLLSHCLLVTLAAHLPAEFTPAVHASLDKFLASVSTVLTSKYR

[7] = target: T7, HeLa cell extract proteins (Homo sapiens, UniProt Q9BPW8)
T7 construct: endogenous in cells; host or cells: HeLa cell extract
T7 sequence (Q9BPW8 36-284): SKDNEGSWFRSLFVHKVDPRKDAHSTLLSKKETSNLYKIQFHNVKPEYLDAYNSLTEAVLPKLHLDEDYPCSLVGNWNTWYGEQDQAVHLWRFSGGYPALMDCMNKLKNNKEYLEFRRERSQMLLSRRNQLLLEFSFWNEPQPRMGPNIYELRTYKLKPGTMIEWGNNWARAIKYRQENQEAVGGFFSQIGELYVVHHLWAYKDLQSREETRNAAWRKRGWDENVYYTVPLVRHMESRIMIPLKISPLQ

[8] = HeLa, protein HBA1 (HEMOGLOBIN SUBUNIT ALPHA)

T1 sequence (O95433 whole entry): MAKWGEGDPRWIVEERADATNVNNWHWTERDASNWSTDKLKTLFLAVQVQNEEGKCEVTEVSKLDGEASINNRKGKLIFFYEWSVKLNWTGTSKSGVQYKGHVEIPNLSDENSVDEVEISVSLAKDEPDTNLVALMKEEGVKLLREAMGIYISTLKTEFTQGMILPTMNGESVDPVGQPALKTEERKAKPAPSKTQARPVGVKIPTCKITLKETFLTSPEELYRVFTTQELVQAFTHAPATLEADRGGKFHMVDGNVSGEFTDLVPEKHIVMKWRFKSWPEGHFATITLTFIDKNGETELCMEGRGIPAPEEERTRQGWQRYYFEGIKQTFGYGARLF

With Nc1nc2cccc(-c3ccccc3)c2n1Cc1ccc(Cl)c(Cl)c1 [compound 3] as the molecule, how does the “fold changes relative to vehicle control” value [1] read?
Its value is 1.24.

And the “fold changes relative to vehicle control” value [2]?
Its value is 0.85 fold.

What about the “fold changes relative to vehicle control” value [3] of the same molecule?
The value was 0.82.

And the “fold changes relative to vehicle control” value [4]?
Its value is 0.88.

Which results are given for NCCOCCOCC(=O)Nc1nc2ncc(CNc3ccc(C(=O)NC(CCC(=O)O)C(=O)O)cc3)nc2c(=O)[nH]1 (stereo not drawn) [compound 6]?
fold changes relative to vehicle control ([5]; HeLa, protein BAG3): 1.17; fold changes relative to vehicle control [6, 8]: 1.05; fold changes relative to vehicle control ([7]; HeLa, protein NIPSNAP1): 1.04

For Nc1nc2[nH]cc(CCc3ccc(C(=O)N[C@@H](CCC(=O)O)C(=O)O)cc3)c2c(=O)[nH]1 [PTX, pemetrexed], which “fold changes relative to vehicle control” value [5] is on record?
The value was 0.96.

What about the “fold changes relative to vehicle control” value [6] of the same molecule?
The value was 0.97.

And the “fold changes relative to vehicle control” value [7]?
Its value is 1.03.

Which “fold changes relative to vehicle control” value ([5]; HeLa, protein BAG3) does the source give for Nc1nc2c(c(=O)[nH]1)N(C=O)C(CNc1ccc(C(=O)N[C@@H](CCC(=O)O)C(=O)O)cc1)CN2 (stereo partly drawn) [LEU, leucovorin] here?
The value was 0.91.

What about the “fold changes relative to vehicle control” value [6, 8] of the same molecule?
Its value is 1.29.

What about the “fold changes relative to vehicle control” value ([7]; HeLa, protein NIPSNAP1) of the same molecule?
Its value is 1.02.

What does the source list for CCCCCCOc1ccc(Cc2cnc(N)nc2N)cc1 [compound 1]?
fold changes relative to vehicle control [1]: 1.17; fold changes relative to vehicle control [2]: 1.53 fold; fold changes relative to vehicle control [3]: 1.09; fold changes relative to vehicle control [4]: 0.98

NCCCNc1ccc(C(=O)NC(CCC(=O)O)C(=O)O)cc1 (stereo not drawn) [compound 7] was tested. Which “fold changes relative to vehicle control” value ([5]; HeLa, protein BAG3) did it give?
Its value is 0.89.

And the “fold changes relative to vehicle control” value [6, 8]?
The value was 0.76.

What about the “fold changes relative to vehicle control” value ([7]; HeLa, protein NIPSNAP1) of the same molecule?
The value was 1.03.

For CCCCCCOc1cccc(Cc2cnc(N)nc2N)c1 [compound 2], which “fold changes relative to vehicle control” value [1] is on record?
The value was 1.63.

And the “fold changes relative to vehicle control” value [2]?
The value was 3.16 fold.

What about the “fold changes relative to vehicle control” value [3] of the same molecule?
The value was 2.29.

What about the “fold changes relative to vehicle control” value [4] of the same molecule?
The value was 0.78.

— publication PMC6199744, “Development of Chemical Proteomics for the Folateome and Analysis of the Kinetoplastid Folateome” (ACS Infectious Diseases, 2018)
